Reference: ChEMBL document CHEMBL1201862, “PubChem BioAssay data set” (2004)
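Cultured in 96-well plates, cells were exposed to test compound for 48 hours across five concentrations. GI50 is the concentration that inhibits growth by half.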 The source made the active and inactive calls. Cut-off read from the data, not from the text of the source: active = GI50 up to about 1.1 µM and inactive = higher.

Tests used:
Assay in all cases: NCI-60 cell line screen, 48 h
CAKI-1 = tested on: CAKI-1
HOP-92 = tested on: HOP-92
A549 = tested on: A549
UACC-62 = tested on: UACC-62
HCT-15 = tested on: HCT-15
HCC 2998 = tested on: HCC 2998
ACHN = tested on: ACHN
SN12C = tested on: SN12C
EKVX = tested on: EKVX
SK-MEL-2 = tested on: SK-MEL-2
OVCAR-4 = tested on: OVCAR-4
TK-10 = tested on: TK-10
KM12 = tested on: KM12
M14 = tested on: M14
NCI-H460 = tested on: NCI-H460
U-251 = tested on: U-251
NCI-H23 = tested on: NCI-H23
786-0 = tested on: 786-0
MCF7 = tested on: MCF7

SMILES | GI50 (CAKI-1) | GI50 (HOP-92) | GI50 (A549) | GI50 (UACC-62) | GI50 (HCT-15) | GI50 (HCC 2998) | GI50 (ACHN) | GI50 (SN12C) | GI50 (EKVX) | GI50 (SK-MEL-2) | GI50 (OVCAR-4) | GI50 (TK-10) | GI50 (KM12) | GI50 (M14) | GI50 (NCI-H460) | GI50 (U-251) | GI50 (NCI-H23) | GI50 (786-0) | GI50 (MCF7)
COc1cc(CNc2nc3c(NC(C)=O)cc(C(F)(F)F)cc3nc2-c2ccccc2)cc(OC)c1OC | > 100 µM (inactive) | 17.8 µM (inactive) | > 100 µM (inactive) | 39.7 µM (inactive) | > 100 µM | > 100 µM (inactive) | > 100 µM (inactive) | > 100 µM (inactive) | > 100 µM (inactive) | > 100 µM (inactive) | 89.5 µM (inactive) | > 100 µM (inactive) | > 100 µM (inactive) | – | – | – | – | – | –
Cc1cc(O)nc(NN2C(Cl)C(=O)C2c2ccco2)n1 (stereo not given) | – | 25.1 µM (inactive) | 77.6 µM (inactive) | 26.5 µM (inactive) | 31.6 µM | 60 µM (inactive) | 28.2 µM (inactive) | 24.2 µM (inactive) | 87.5 µM (inactive) | 27.6 µM (inactive) | 19.7 µM (inactive) | 61.2 µM (inactive) | 44.6 µM (inactive) | 33.8 µM (inactive) | 24.6 µM (inactive) | 30.5 µM (inactive) | 28 µM (inactive) | – | –
O=C(O)c1c[nH]c2c(=O)[nH]cnc12 | > 100 µM (inactive) | > 100 µM (inactive) | > 100 µM (inactive) | > 100 µM (inactive) | > 100 µM | > 100 µM (inactive) | > 100 µM (inactive) | > 100 µM (inactive) | > 100 µM (inactive) | > 100 µM (inactive) | – | > 100 µM (inactive) | > 100 µM (inactive) | > 100 µM (inactive) | – | – | > 100 µM (inactive) | > 100 µM (inactive) | –
O=C(Nc1c(Cl)cc([N+](=O)[O-])cc1Cl)/C(=N\Nc1cccc(Cl)c1)c1c(O)c2ccccc2oc1=O | – | – | > 100 µM (inactive) | 89.5 µM (inactive) | – | > 100 µM (inactive) | 49.2 µM (inactive) | 34.2 µM (inactive) | 26.4 µM (inactive) | > 100 µM (inactive) | > 100 µM (inactive) | > 100 µM (inactive) | > 100 µM (inactive) | – | > 100 µM (inactive) | – | 62.7 µM (inactive) | > 100 µM (inactive) | –
COc1cccc2ccc(C(=O)c3ccccc3)nc12 | > 100 µM (inactive) | – | > 100 µM (inactive) | > 100 µM (inactive) | > 100 µM | > 100 µM (inactive) | > 100 µM (inactive) | > 100 µM (inactive) | > 100 µM (inactive) | > 100 µM (inactive) | > 100 µM (inactive) | > 100 µM (inactive) | > 100 µM (inactive) | > 100 µM (inactive) | – | > 100 µM (inactive) | > 100 µM (inactive) | > 100 µM (inactive) | –
COC(=O)N/N=C/c1oc(-c2ccccc2)c(-c2ccccc2)c1[N+](=O)[O-] | > 100 µM (inactive) | > 100 µM (inactive) | > 100 µM (inactive) | > 100 µM (inactive) | > 100 µM | > 100 µM (inactive) | > 100 µM (inactive) | > 100 µM (inactive) | – | – | > 100 µM (inactive) | > 100 µM (inactive) | > 100 µM (inactive) | > 100 µM (inactive) | > 100 µM (inactive) | > 100 µM (inactive) | > 100 µM (inactive) | > 100 µM (inactive) | –
CC1CC2C3CCC4=CC(=O)C=CC4(C)C3(F)C(O)CC2(C)C1(O)C(=O)COP(=O)(O)O (stereo not given) | > 100 µM (inactive) | > 100 µM (inactive) | > 100 µM (inactive) | > 100 µM (inactive) | > 100 µM | > 100 µM (inactive) | > 100 µM (inactive) | – | > 100 µM (inactive) | > 100 µM (inactive) | > 100 µM (inactive) | > 100 µM (inactive) | > 100 µM (inactive) | > 100 µM (inactive) | > 100 µM (inactive) | > 100 µM (inactive) | > 100 µM (inactive) | – | > 100 µM (inactive)
COC1=CC(C2c3cc4c(cc3[C@@H](Nc3ccc([N+](=O)[O-])cc3)C3COC(=O)[C@H]23)OCO4)=CC(=O)C1=O (stereo not given in full) | 2.64 µM (inactive) | 1.52 µM (inactive) | 0.923 µM (active) | 2.18 µM (inactive) | 3.27 µM | 2.63 µM (inactive) | 0.912 µM (active) | 2 µM (inactive) | 7.57 µM (inactive) | 17 µM (inactive) | 59.3 µM (inactive) | 8.41 µM (inactive) | 4.53 µM (inactive) | 3.29 µM (inactive) | 0.277 µM (active) | 1.35 µM (inactive) | 1.64 µM (inactive) | 1.83 µM (inactive) | –
CC1=C(CO)C(=O)O[C@@H]([C@@H](C)[C@H]2CC[C@H]3[C@@H]4C[C@H]5O[C@]56[C@@H](O)C=CC(=O)[C@]6(C)[C@H]4CC[C@]23C)C1 [WITHAFERIN A] | 0.463 µM (active) | 0.467 µM (active) | 3.31 µM (inactive) | 1.45 µM (inactive) | 0.446 µM | 0.509 µM (active) | 1.7 µM (inactive) | – | – | 0.601 µM (active) | 0.566 µM (active) | 0.641 µM (active) | 3.72 µM (inactive) | 0.423 µM (active) | 2.91 µM (inactive) | 0.247 µM (active) | 0.221 µM (active) | 0.401 µM (active) | –
